Test results from US20160345582A1, “HERBICIDE COMPOSITIONS FOR WEED CONTROL” (Valent U.S.A., Corporation, priority 2015, published 2016).

Columns and labels:
[1] = test system: Velvetleaf; experiment: Field test 2011 (Example 1), post emergence weed control in corn; assay type: in vivo, Abutilon theophrasti; conditions: Study 2; 30 DAT; topramezone 18.4, pyroxasulfone 90 g ai/ha; applied at V5 corn stage, weeds 4 to 10 inches
Description: (§1) In 2011, two field tests were conducted using similar protocols. Both studies were completed in Indiana, United States. Weeds were 4 to 10 inches in height at time of application. Untreated checks were included in the trial, however pyroxasulfone alone is not effective for post emergence weed control and was therefore not included as a standalone treatment. Roundup Ready corn (Zea maize) was used in the test as the crop plant utilizing a natural population of weeds. All of the treatments contained non-ionic surfactant at 0.25% v/v and were applied at the V5 corn growth stage. Applications were made utilizing a hand boom sprayer with application area for each treatment equating to 10 feet by 200 feet.
(§2) Topramezone was administered at 18.4 grams/hectare. Pyroxasulfone was administered at 90 grams/hectare.
(§3) Thirty days after treatment (“DAT”) readings were taken to determine the survival of Ivyleaf Morningglory, Yellow Nutsedge, Velvetleaf and Annual Grass. Survival ratings were taken by counting the number of alive and dead plants at the time of the reading. All data was analyzed using Bartlett's test and with p value of […] for determining significance of the results. The Effect of Topamezone and Pyroxasulfone on Weeds (% Control).”

[2] = test system: Barnyardgrass; experiment: Field test 2013 (Example 2), post emergence weed control in corn; assay type: in vivo, Echinochloa crus-galli; conditions: 30 DAT, topramezone 18.4, pyroxasulfone 90 g ai/ha, applied at V5 corn stage
[3] = test system: Yellow Nutsedge; experiment: as above; assay type: in vivo, Cyperus esculentus; conditions: Study 7; 30 DAT; topramezone 18.4, pyroxasulfone 90 g ai/ha; applied at V5 corn stage
[4] = test system: Giant Ragweed; experiment: as above; assay type: in vivo, Ambrosia trifida; conditions: Study 7; 30 DAT; topramezone 18.4, pyroxasulfone 90 g ai/ha; applied at V5 corn stage
[5] = test system: Ivyleaf Morningglory; experiment: Field test 2011 (Example 1), post emergence weed control in corn; assay type: in vivo, Ipomoea hederacea; conditions: Study 1; 30 DAT; topramezone 18.4, pyroxasulfone 90 g ai/ha; applied at V5 corn stage, weeds 4 to 10 inches
Description: as §1, §2, §3

[6] = test system: Palmer Amaranth; experiment: Field test 2013 (Example 2), post emergence weed control in corn; assay type: in vivo, Amaranthus palmeri; conditions: Study 7; 30 DAT; topramezone 18.4, pyroxasulfone 90 g ai/ha; applied at V5 corn stage
[7] = test system: Annual Grass; experiment: Field test 2011 (Example 1), post emergence weed control in corn; assay type: in vivo; conditions: Study 2; 30 DAT; topramezone 18.4, pyroxasulfone 90 g ai/ha; applied at V5 corn stage, weeds 4 to 10 inches
Description: as §1, §2, §3

[8] = test system: Foxtail; experiment: Field test 2013 (Example 2), post emergence weed control in corn; assay type: in vivo, Setaria species; conditions: Study 6; 30 DAT; topramezone 18.4, pyroxasulfone 90 g ai/ha; applied at V5 corn stage
[9] = test system: Waterhemp; experiment: as above; assay type: in vivo, Amaranthus tuberculatus; conditions: 30 DAT, applied at V5 corn stage
[10] = test system: Yellow Nutsedge; experiment: Field test 2011 (Example 1), post emergence weed control in corn; assay type: in vivo, Cyperus esculentus; conditions: Study 1; 30 DAT; topramezone 18.4, pyroxasulfone 90 g ai/ha; applied at V5 corn stage, weeds 4 to 10 inches
Description: as §1, §2, §3

[11] = test system: Giant Foxtail; experiment: Field test 2013 (Example 2), post emergence weed control in corn; assay type: in vivo, Setaria faberi; conditions: Study 5; 30 DAT; topramezone 18.4, pyroxasulfone 90, atrazine 840 g ai/ha; applied at V5 corn stage
[12] = test system: Common Ragweed; experiment: as above; assay type: in vivo, Ambrosia artemisiifolia; conditions: Study 4; 30 DAT; topramezone 18.4, pyroxasulfone 90 g ai/ha; applied at V5 corn stage
[13] = test system: Broadleaf signalgrass; experiment: as above; assay type: in vivo, Brachiaria platyhylla; conditions: Study 7; 30 DAT; topramezone 18.4, pyroxasulfone 90 g ai/ha; applied at V5 corn stage
[14] = test system: Velvetleaf; experiment: as above; assay type: in vivo, Abutilon theophrasti; conditions: Study 9; 30 DAT; topramezone 18.4, pyroxasulfone 90 g ai/ha; applied at V5 corn stage
[15] = test system: Fall Panicum; experiment: as above; assay type: in vivo; conditions: Study 3; 30 DAT; mesotrione 105, pyroxasulfone 90 g ai/ha; applied at V5 corn stage

Row | Compound | % Control Velvetleaf [1] | % Control Barnyardgrass ([2]; Study 7) | % Control Barnyardgrass ([2]; Study 9) | % Control Yellow Nutsedge [3] | % Control Giant Ragweed [4] | % Control Ivyleaf Morningglory [5] | % Control Palmer Amaranth [6] | % Control Annual Grass [7] | % Control Foxtail [8] | % Control Waterhemp ([9]; Study 6, topramezone 18.4, pyroxasulfone 90 g ai/ha) | % Control Waterhemp ([9]; Study 8, topramezone 18.4, pyroxasulfone 90 g ai/ha) | % Control Yellow Nutsedge [10] | % Control Giant Foxtail [11] | % Control Common Ragweed [12] | % Control Broadleaf signalgrass [13] | % Control Velvetleaf [14] | % Control Fall Panicum [15] | % Control Waterhemp ([9]; Study 3, mesotrione 105, pyroxasulfone 90 g ai/ha)
1 | Cc1c(C(=O)c2cnn(C)c2O)ccc(S(C)(=O)=O)c1C1=NOCC1 [Topramezone, [3-(4,5-dihydro-1,2-oxazol-3-yl)-4-mesyl-o-tolyl](5-hydroxy-1-methylpyrazol-4-yl)methanone] | 95% | 80% | 93% | 60% | 91% | 68% | 93% | 33% | 98% | 94% | 90% | 73% | 87% | 94% | 90% | 90% | – | –
2 | CS(=O)(=O)c1ccc(C(=O)C2C(=O)CCCC2=O)c([N+](=O)[O-])c1 [Mesotrione, 2[4-(methylsulfonyl)-2-nitrobenzoyl]cyclohexane-1,3-dione] | – | – | – | – | – | – | – | – | – | – | – | – | – | – | – | – | 98% | 80%
